Assay results published in patent US20130183268A1, “DRUG COMBINATIONS WITH FLUORO-SUBSTITUTED OMEGA-CARBOXYARYL DIPHENYL UREA FOR THE TREATMENT AND PREVENTION OF DISEASES AND CONDITIONS” (BAYER HEALTHCARE LLC, priority 2010, published 2013).

Legend:
[1] = Metabolite profile, incubation of [14C]regorafenib with liver microsomes (man); type: in vitro ADME; settings: [14C]regorafenib 20 μM, liver microsomes 0.5 mg/mL, 60 min
Description: (§1) N-oxide (M-2), hydroxymethyl (M-3), de-methylated (M-4) and N-oxide-demethylated (M-5) metabolites of the fluoro-substituted diaryl urea of Formula (I) are shown below. They were identified as metabolites of regorafenib in vitro upon incubation with liver enzymes of various mammalian species (man, dog, rat, mouse). Studies reveal that its metabolites show high protein binding in man and animal species (data not shown). [table]

[2] = Metabolite profile, incubation of [14C]regorafenib with liver microsomes (dog); type: in vitro ADME, Beagle dog; settings: [14C]regorafenib 20 μM, liver microsomes 0.5 mg/mL, 60 min
[3] = Metabolite profile, incubation of [14C]regorafenib with liver microsomes (rat); type: in vitro ADME, Wistar rat; settings: [14C]regorafenib 20 μM, liver microsomes 0.5 mg/mL, 60 min
Description: as §1

[4] = Metabolite profile, incubation of [14C]regorafenib with liver microsomes (mouse); type: in vitro ADME, NMRI mouse; settings: [14C]regorafenib 20 μM, liver microsomes 0.5 mg/mL, 60 min
Description: as §1

[5] = Pharmacokinetics in patients after 160 mg regorafenib co-precipitate tablet; settings: for AUC Day 21 / Cmax Day 21: analyte in plasma, 160 mg regorafenib co-precipitate tablet daily, day 21, n = 9, geometric mean; for systemic exposure: colon cancer patients, 160 mg coprecipitate tablets daily for 21 days; for fold increase in Cmax / fold increase in the AUC: continuous qd dosing for 19 days, in comparison to the first dose; for Fold change AUC / Fold change Cmax: day 21 versus day 1
[6] = analyte in plasma after 160 mg regorafenib co-precipitate tablet, day 1, n = 9, geometric mean

% of radioactivity, Man [1] | % of radioactivity, Beagle dog [2] | % of radioactivity, Wistar rat [3] | % of radioactivity, NMRI mouse [4] | AUC Day 1 [5, 6] | Cmax Day 1 [5, 6] | AUC Day 21 [5] | Cmax Day 21 [5] | systemic exposure [5] | fold increase in Cmax [5] | fold increase in the AUC [5] | Fold change AUC [5] | Fold change Cmax [5] | SMILES
29.7% | 3.6% | 5.4% | 26.9% | 24000 ng·h/mL | 764 ng/mL | 55400 ng·h/mL | 3570 ng/mL | very similar to regorafenib | 5 fold | 2 fold | 2.3 | 4.7 | CNC(=O)c1cc(Oc2ccc(NC(=O)Nc3ccc(Cl)c(C(F)(F)F)c3)c(F)c2)cc[n+]1[O-] [Example M-2, 4{4-[3-(4-chloro-3-trifluoromethylphenyl)-ureido]-3-fluorophenoxy}-1-hydroxy-pyridine-2-carboxylic acid methylamide]
7.7% | 25.6% | 19% | 12% | – | – | – | – | – | – | – | – | – | O=C(Nc1ccc(Cl)c(C(F)(F)F)c1)Nc1ccc(Oc2ccnc(C(=O)NCO)c2)cc1F [Example M-3]
– | – | – | – | – | 75.5 ng/mL | 51800 ng·h/mL | 3140 ng/mL | very similar to regorafenib | 42 fold | 25 fold | 25.1 | 41.6 | NC(=O)c1cc(Oc2ccc(NC(=O)Nc3ccc(Cl)c(C(F)(F)F)c3)c(F)c2)cc[n+]1[O-] [Example M-5, 4{4-[3-(4-chloro-3-trifluoromethylphenyl)-ureido]-3-fluorophenoxy}-1-hydroxy-pyridine-2-carboxylic acid amide]
